In series [1] the test system is Chlamydia trachomatis. The experiment in a line: Bacteriostatic activity against Chlamydia trachomatis serovar L2 infected in human HeLa cells assessed as growth inhibition compound treated at >100 uM for 1 hr prior infection measured 24 hrs post infection by microscopy in presence of 200 uM iron citrate. In kind it is functional, organism-based.
Series [2] relates to Chlamydia trachomatis. The series can be described thus: Bacteriostatic activity against Chlamydia trachomatis serovar L2 infected in human HeLa cells assessed as growth inhibition compound treated at >100 uM for 1 hr prior infection measured 24 hrs post infection by microscopy. Format: functional, organism-based.
Series [3] is described as follows: Iron chelating activity of the compound at pH 7.4 by UV-visible spectrophotometric titration. In kind it is physicochemical.
A short description of series [4]: Cytotoxicity against mouse fibroblasts at 5 to 200 uM after 24 to 48 hrs by trypan blue exclusion assay. In kind it is cell-based. Conditions: fibroblast.
Series [5] deals with Chlamydia trachomatis. The series can be described thus: Bactericidal activity against Chlamydia trachomatis serovar L2 infected in human HeLa cells assessed as reduction in inclusion forming unit compound treated at 5 to 25 uM for 1 hr prior infection measured 24 hrs post infection by immunofluorescence assay in presence of 200 uM iron citrate. In kind it is functional, organism-based.

Series [6] concerns HeLa. The experiment in a line: Cytotoxicity against human HeLa cells at 5 to 200 uM after 24 to 48 hrs by trypan blue exclusion assay. In kind it is cell-based.
Series [7] relates to Chlamydia trachomatis. The experiment in a line: Bactericidal activity against Chlamydia trachomatis serovar L2 infected in human HeLa cells assessed as growth inhibition compound treated at 200 uM for 1 hr prior infection measured 24 hrs post infection by microscopy. Format: functional, organism-based.
For series [8], the system named is Chlamydia trachomatis. The series can be described thus: Bactericidal activity against Chlamydia trachomatis serovar L2 infected in human HeLa cells assessed as growth inhibition compound treated for 1 hr prior infection measured 24 hrs post infection by microscopy. In kind it is functional, organism-based.
Series [9] deals with Chlamydia trachomatis. The experiment in a line: Bactericidal activity against Chlamydia trachomatis serovar L2 infected in human HeLa cells assessed as growth inhibition compound treated at 50 to 200 uM for 1 hr prior infection measured 24 hrs post infection by microscopy. In kind it is functional, organism-based.
The subject of series [10] is Chlamydia trachomatis. The experiment in a line: Bactericidal activity against Chlamydia trachomatis serovar L2 infected in human HeLa cells assessed as growth inhibition compound treated at 5 to 200 uM for 1 hr prior infection measured 24 hrs post infection by microscopy. In kind it is functional, organism-based.
Series [11] relates to Chlamydia trachomatis. The series can be described thus: Bactericidal activity against Chlamydia trachomatis serovar L2 infected in human HeLa cells assessed as growth inhibition compound treated at 100 to 200 uM for 1 hr prior infection measured 24 hrs post infection by microscopy in presence of 200 uM iron citrate. In kind it is functional, organism-based.

Each structure is given as a SMILES string. The source made the active and inactive calls. No cut-off for these calls is given here.

On to `CC(=O)N(O)CCCCCNC(=O)CCC(=O)N(O)CCCCCNC(=O)CCC(=O)N(O)CCCCCN`, for which, in series [1], the “growth inhibition (GI)” value was “inactive”. Besides, in series [2], the “growth inhibition (GI)” value is “Active”.
Regarding `O=C(NCCOC1=NOC[C@H]1NC(=O)c1cccc(O)c1O)c1cccc(O)c1O`, the results for the Activity entry in series [3], in [4] and in [6] were “Active”, “Non-toxic” and “Non-toxic”, respectively. In addition, the outcome in [5] was Active. Moreover, in series [7], the “growth inhibition (GI)” value was “Active”.
In the case of `O=C(NCCN1OC[C@@H](NC(=O)c2cccc(O)c2O)C1=O)c1cccc(O)c1O`, the Activity entry in series [3] is “Active”; in [4], “Non-toxic”; in series [6] it was “Non-toxic”. In series [8], the “growth inhibition (GI)” value is “Dose-dependent effect”. Further, in [5], the outcome was Active. Further, in [9], the “growth inhibition (GI)” value is “Active”.
Take `COc1cccc(C(=O)N[C@@H]2CON(CCc3c[nH]cn3)C2=O)c1OC`: the “growth inhibition (GI)” value in series [8] is “Dose-dependent effect”. The Activity entry in series [4] and in [6] was “Non-toxic” each time. The “growth inhibition (GI)” value in series [10] is “inactive”.
With `O=C(N[C@@H]1CON(CCOC(=O)c2cccc(O)c2O)C1=O)c1cccc(O)c1O`, the Activity result in [3] is listed as “Active”; in series [4] it was “Non-toxic”; in series [6], “Non-toxic”. Further, the “growth inhibition (GI)” value in series [8] is “Dose-dependent effect”. In addition, the “growth inhibition (GI)” value in series [7] is “Active”.
Take `O=C(NCCN1OC[C@@H](NC(=O)c2ccc3ccccc3n2)C1=O)c1ccc2ccccc2n1`: the Activity result in [3] is given as “Not Active”; in [4], “Non-toxic”; in series [6], “Non-toxic”. For the same molecule, the “growth inhibition (GI)” value in series [8] was “Dose-dependent effect”. Besides, the result in series [5] was Active. The “growth inhibition (GI)” value in series [10] is “inactive”.
`O=C(N[C@@H]1CON(CCc2c[nH]cn2)C1=O)c1cccc(O)c1O`: the “growth inhibition (GI)” value in series [8] is “Dose-dependent effect”. Moreover, the Activity result in series [4] and in series [6] was “Non-toxic” throughout. The “growth inhibition (GI)” value in series [10] is “Active”.
With `O=C(N[C@@H]1CON(CCCCOC(=O)c2cccc(O)c2O)C1=O)c1cccc(O)c1O`, the Activity result was “Active” in series [3], “Non-toxic” in series [4] and “Non-toxic” in [6]. In addition, in [8], the “growth inhibition (GI)” value was “Dose-dependent effect”. Further, the “growth inhibition (GI)” value in series [9] was “Active”.
`O=C(NCCN1OC[C@@H](NC(=O)c2ccc3cccc(O)c3n2)C1=O)c1ccc2cccc(O)c2n1`: the Activity result in series [3] is on record as “Not Active”; in series [4] it was “Non-toxic”; in [6], “Non-toxic”. The “growth inhibition (GI)” value in [8] was “Dose-dependent effect”. Also, in series [5], the outcome was Active. In addition, the “growth inhibition (GI)” value in series [11] and in series [10] was “Active” throughout.
`N[C@@H]1CONC1=O`: the outcome in series [5] was Active.
